Measured values reported in US20230265151A1, “GIP/GLP1 CO-AGONIST COMPOUNDS” (priority 2020, published 2023).
Like-named read-outs stand apart in the source and are kept apart here.

Columns and labels:
Format in all cases: cell-based
hGLP-1R = hGLP-1R (Homo sapiens, UniProt P43220); assay: Functional cAMP formation (HTRF) in HEK-293 clonal cells expressing hGLP-1R, 0.1% bovine casein, without or with 1.0% human serum albumin; set-up: expressed in transfected cells; settings: for Emax: percent of maximal response to GLP-1(7-36)NH2; for EC50: cAMP
How it was run: (§1)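 Readings of the HTRF 665/620 nm ratio, which falls as cAMP rises, were converted to nM cAMP using a standard curve after 30 min peptide exposure at 37° C.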

hGCGR = target: T1, hGCGR (Homo sapiens, UniProt P47871); assay: Functional cAMP formation (HTRF) in HEK-293 clonal cells expressing hGCGR, 0.1% bovine casein, without or with 1.0% human serum albumin; settings: cAMP, 37° C.
T1 construct: expressed in transfected cells
How it was run: as §1

hGIPR = target: T2, hGIPR (Homo sapiens, UniProt P48546); assay: Functional cAMP formation (HTRF) in HEK-293 clonal cells expressing hGIPR, 0.1% bovine casein, without or with 1.0% human serum albumin; settings: for Emax: percent of maximal response to GIP(1-42)NH2; for EC50: cAMP, 0.1% bovine casein (no human serum albumin), geometric mean
T2 construct: expressed in transfected cells
T2 sequence (P48546 22-466): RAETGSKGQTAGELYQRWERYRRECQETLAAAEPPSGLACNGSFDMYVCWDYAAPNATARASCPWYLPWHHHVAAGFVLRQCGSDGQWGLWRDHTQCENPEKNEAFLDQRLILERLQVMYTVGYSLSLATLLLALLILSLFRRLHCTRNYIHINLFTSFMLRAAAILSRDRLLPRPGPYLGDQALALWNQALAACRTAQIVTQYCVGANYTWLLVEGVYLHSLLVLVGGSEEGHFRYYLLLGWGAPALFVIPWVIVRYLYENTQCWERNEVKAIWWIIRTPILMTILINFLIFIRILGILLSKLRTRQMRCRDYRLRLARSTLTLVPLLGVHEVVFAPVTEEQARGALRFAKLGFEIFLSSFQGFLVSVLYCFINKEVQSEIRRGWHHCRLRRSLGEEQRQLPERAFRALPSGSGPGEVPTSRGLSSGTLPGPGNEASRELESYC
How it was run: as §1

[1] = HEK293, read-out: hGLP-1R Emax, % ± SEM, cAMP, 37° C., 0.1% bovine casein and 1.0% human serum albumin
[2] = hGLP-1R EC50, nM (SEM, n), 37° C., 0.1% bovine casein (no human serum albumin), geometric mean
[3] = hGCGR EC50, nM (SEM, n), 0.1% bovine casein (no human serum albumin), geometric mean
[4] = hGCGR EC50, nM (SEM, n), 0.1% bovine casein and 1.0% human serum albumin, geometric mean (SEM, n)
[5] = HEK293, read-out: hGIPR Emax, % ± SEM, cAMP, 37° C., 0.1% bovine casein and 1.0% human serum albumin
[6] = hGIPR EC50, nM (SEM, n), 37° C.

T1 sequence (P47871 26-477): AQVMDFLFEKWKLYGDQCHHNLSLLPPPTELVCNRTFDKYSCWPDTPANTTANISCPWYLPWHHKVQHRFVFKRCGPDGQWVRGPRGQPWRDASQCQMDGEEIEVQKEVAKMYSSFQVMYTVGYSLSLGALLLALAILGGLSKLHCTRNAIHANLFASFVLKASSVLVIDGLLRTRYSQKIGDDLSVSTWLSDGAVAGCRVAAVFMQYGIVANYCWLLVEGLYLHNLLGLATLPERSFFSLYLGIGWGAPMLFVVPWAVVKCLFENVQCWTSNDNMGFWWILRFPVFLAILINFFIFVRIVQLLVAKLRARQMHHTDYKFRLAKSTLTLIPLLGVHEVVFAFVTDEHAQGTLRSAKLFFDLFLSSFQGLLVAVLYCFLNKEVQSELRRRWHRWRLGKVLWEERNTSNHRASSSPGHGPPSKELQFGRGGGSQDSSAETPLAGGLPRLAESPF
Chain of hGLP-1R (P43220 24-463): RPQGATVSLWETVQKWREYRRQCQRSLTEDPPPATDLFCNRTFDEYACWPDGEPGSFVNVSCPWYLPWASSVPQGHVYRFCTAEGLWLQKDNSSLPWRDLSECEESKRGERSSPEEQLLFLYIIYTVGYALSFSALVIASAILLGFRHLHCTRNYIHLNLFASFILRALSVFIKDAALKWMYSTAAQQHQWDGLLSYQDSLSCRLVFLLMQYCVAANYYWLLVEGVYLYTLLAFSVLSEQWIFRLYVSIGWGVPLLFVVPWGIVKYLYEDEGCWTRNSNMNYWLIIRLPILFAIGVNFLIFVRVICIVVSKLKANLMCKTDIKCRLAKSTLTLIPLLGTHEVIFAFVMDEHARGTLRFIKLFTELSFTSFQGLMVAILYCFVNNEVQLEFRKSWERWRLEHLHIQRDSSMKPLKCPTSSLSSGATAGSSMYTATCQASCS

Row | SMILES | Emax (hGLP-1R; [1]) | Emax (hGLP-1R; HEK293, read-out: hGLP-1R Emax, % ± SEM, cAMP, 37° C., 0.1% bovine casein, arithmetic mean) | EC50 (hGLP-1R; [2]) | EC50 (hGCGR; [3]) | EC50 (hGCGR; [4]) | Emax (hGIPR; [5]) | EC50 (hGIPR; [6]) | EC50 (hGLP-1R; hGLP-1R EC50, nM (SEM, n), 37° C., 0.1% bovine casein and 1.0% human serum albumin, geometric mean (SEM, n)) | Emax (hGLP-1R; HEK293, cAMP, 37° C., 0.1% bovine casein and 1.0% human serum albumin, read-out: hGLP-1R Emax, % ± SEM) | EC50 (hGLP-1R; 37° C., 0.1% bovine casein (no human serum albumin), geometric mean, read-out: hGLP-1R EC50, nM (SEM, n)) | EC50 (hGCGR; 0.1% bovine casein (no human serum albumin), geometric mean, read-out: hGCGR EC50, nM (SEM, n)) | EC50 (hGCGR; 0.1% bovine casein and 1.0% human serum albumin, geometric mean (SEM, n), read-out: hGCGR EC50, nM (SEM, n)) | Emax (hGIPR; HEK293, cAMP, 37° C., 0.1% bovine casein and 1.0% human serum albumin, read-out: hGIPR Emax, % ± SEM) | Emax (hGIPR; HEK293, cAMP, 37° C., 0.1% bovine casein, arithmetic mean, read-out: hGIPR Emax, % ± SEM) | EC50 (hGIPR; 37° C., read-out: hGIPR EC50, nM (SEM, n)) | Emax (hGIPR; HEK293, read-out: hGIPR Emax, % ± SEM, cAMP, 37° C., 0.1% bovine casein, arithmetic mean)
1 | CC[C@H](C)[C@H](NC(=O)[C@H](CC(C)C)NC(=O)[C@](C)(Cc1ccc(O)cc1)NC(=O)[C@@H](CCC(=O)O)NC(=O)[C@@H](NC(=O)[C@H](Cc1ccccc1)NC(=O)[C@H](CCC(=O)O)NC(=O)C(C)(C)NC(=O)[C@H](CCC(N)=O)NC(=O)[C@H](C)NC(=O)[C@H](CCCCNC(=O)COCCOCCNC(=O)COCCOCCNC(=O)CC[C@H](NC(=O)CCCCCCCCCOc1ccc(C(=O)O)cc1)C(=O)O)NC(=O)[C@H](CCCN)NC(=O)[C@H](CC(=O)O)NC(=O)[C@H](CC(C)C)NC(=O)[C@](C)(CC(C)C)NC(=O)[C@@H](NC(=O)C(C)(C)NC(=O)[C@@H](NC(=O)[C@H](CC(=O)O)NC(=O)[C@H](CO)NC(=O)[C@@H](NC(=O)[C@](C)(Cc1ccccc1F)NC(=O)[C@@H](NC(=O)CNC(=O)[C@H](CCC(=O)O)NC(=O)C(C)(C)NC(=O)[C@@H](N)Cc1ccc(O)cc1)[C@@H](C)O)[C@@H](C)O)C(C)C)[C@@H](C)CC)[C@@H](C)CC)C(=O)N[C@@H](CCCCNC(=O)COCCOCCNC(=O)COCCOCCNC(=O)CC[C@H](NC(=O)CCCCCCCCCOc1ccc(C(=O)O)cc1)C(=O)O)C(=O)NCC(=O)NCC(=O)N1CCC[C@H]1C(=O)N[C@@H](CO)C(=O)N[C@@H](CO)C(=O)NCC(=O)N[C@@H](C)C(=O)N1CCC[C@H]1C(=O)N1CCC[C@H]1C(=O)N1CCC[C@H]1C(=O)N[C@@H](CO)C(N)=O [Example 326] | 96.1% | 94.4% | 0.186 nM | > 9950 nM | > 9950 nM | 88.7% | 0.0338 nM |  |  |  |  |  |  |  |  | 
2 | CC[C@H](C)[C@H](NC(=O)[C@H](CC(C)C)NC(=O)[C@](C)(Cc1ccc(O)cc1)NC(=O)[C@@H](CCC(=O)O)NC(=O)[C@@H](NC(=O)[C@H](Cc1ccccc1)NC(=O)[C@H](CCC(=O)O)NC(=O)C(C)(C)NC(=O)[C@H](CCC(N)=O)NC(=O)[C@H](C)NC(=O)[C@H](CCCCNC(=O)COCCOCCNC(=O)COCCOCCNC(=O)CC[C@H](NC(=O)CCCCCCCCCOc1ccc(C(=O)O)cc1)C(=O)O)NC(=O)[C@H](CCCN)NC(=O)[C@H](CC(=O)O)NC(=O)[C@H](CC(C)C)NC(=O)[C@](C)(CC(C)C)NC(=O)[C@@H](NC(=O)[C@H](CO)NC(=O)[C@H](CCc1ccc(O)cc1)NC(=O)[C@H](CC(=O)O)NC(=O)[C@H](CO)NC(=O)[C@@H](NC(=O)[C@](C)(Cc1ccccc1F)NC(=O)[C@@H](NC(=O)CNC(=O)[C@H](CCC(=O)O)NC(=O)C(C)(C)NC(=O)[C@@H](N)Cc1ccc(O)cc1)[C@@H](C)O)[C@@H](C)O)[C@@H](C)CC)[C@@H](C)CC)C(=O)N[C@@H](CCCCNC(=O)COCCOCCNC(=O)COCCOCCNC(=O)CC[C@H](NC(=O)CCCCCCCCCOc1ccc(C(=O)O)cc1)C(=O)O)C(=O)NCC(=O)NCC(=O)N1CCC[C@H]1C(=O)N[C@@H](CO)C(=O)N[C@@H](CO)C(=O)NCC(=O)N[C@@H](C)C(=O)N1CCC[C@H]1C(=O)N1CCC[C@H]1C(=O)N1CCC[C@H]1C(=O)N[C@@H](CO)C(N)=O [Example 327] |  |  | 0.211 nM | > 9950 nM | > 9950 nM | 90.2% | 0.018 nM | 13.6 nM |  |  |  |  |  |  |  | 
3 | CC[C@H](C)[C@H](NC(=O)[C@H](CCCN)NC(=O)[C@H](CC(=O)O)NC(=O)[C@H](CC(C)C)NC(=O)[C@](C)(CC(C)C)NC(=O)[C@@H](NC(=O)C(C)(C)NC(=O)[C@@H](NC(=O)[C@H](CC(=O)O)NC(=O)[C@H](CO)NC(=O)[C@@H](NC(=O)[C@](C)(Cc1ccccc1F)NC(=O)[C@@H](NC(=O)CNC(=O)[C@H](CCC(=O)O)NC(=O)C(C)(C)NC(=O)[C@@H](N)Cc1ccc(O)cc1)[C@@H](C)O)[C@@H](C)O)C(C)C)[C@@H](C)CC)C(=O)N[C@@H](C)C(=O)N[C@@H](CCC(N)=O)C(=O)NC(C)(C)C(=O)N[C@@H](CCCCNC(=O)COCCOCCNC(=O)COCCOCCNC(=O)CC[C@H](NC(=O)CCCCCCCCCCCCC(=O)O)C(=O)O)C(=O)N[C@@H](Cc1ccccc1)C(=O)N[C@H](C(=O)N[C@H](CCC(=O)O)C(=O)N[C@@](C)(Cc1ccc(O)cc1)C(=O)N[C@@H](CC(C)C)C(=O)N[C@H](C(=O)N[C@@H](CCCCNC(=O)COCCOCCNC(=O)COCCOCCNC(=O)CC[C@H](NC(=O)CCCCCCCCCCCCC(=O)O)C(=O)O)C(=O)NCC(=O)NCC(=O)N1CCC[C@H]1C(=O)N[C@@H](CO)C(=O)N[C@@H](CO)C(=O)NCC(=O)N[C@@H](C)C(=O)N1CCC[C@H]1C(=O)N1CCC[C@H]1C(=O)N1CCC[C@H]1C(=O)N[C@@H](CO)C(N)=O)[C@@H](C)CC)[C@@H](C)CC [Example 329] |  |  |  |  |  |  |  |  | 88.3% | 0.353 nM | > 9950 nM | > 9950 nM | 100% | 109% | 0.015 nM | 
4 | CC[C@H](C)[C@H](NC(=O)[C@H](CCCN)NC(=O)[C@H](CC(=O)O)NC(=O)[C@H](CC(C)C)NC(=O)[C@](C)(CC(C)C)NC(=O)[C@@H](NC(=O)C(C)(C)NC(=O)[C@@H](NC(=O)[C@H](CC(=O)O)NC(=O)[C@H](CO)NC(=O)[C@@H](NC(=O)[C@](C)(Cc1ccccc1F)NC(=O)[C@@H](NC(=O)CNC(=O)[C@H](CCC(=O)O)NC(=O)C(C)(C)NC(=O)[C@@H](N)Cc1ccc(O)cc1)[C@@H](C)O)[C@@H](C)O)C(C)C)[C@@H](C)CC)C(=O)N[C@@H](C)C(=O)N[C@@H](CCC(N)=O)C(=O)NC(C)(C)C(=O)N[C@@H](CCCCNC(=O)COCCOCCNC(=O)COCCOCCNC(=O)CC[C@H](NC(=O)CCCCCCCCCOc1ccc(C(=O)O)cc1)C(=O)O)C(=O)N[C@@H](Cc1ccccc1)C(=O)N[C@H](C(=O)N[C@H](CCC(=O)O)C(=O)N[C@@](C)(Cc1ccc(O)cc1)C(=O)N[C@@H](CC(C)C)C(=O)N[C@H](C(=O)N[C@@H](CCCCNC(=O)COCCOCCNC(=O)COCCOCCNC(=O)CC[C@H](NC(=O)CCCCCCCCCOc1ccc(C(=O)O)cc1)C(=O)O)C(=O)NCC(=O)NCC(=O)N1CCC[C@H]1C(=O)N[C@@H](CO)C(=O)N[C@@H](CO)C(=O)NCC(=O)N[C@@H](C)C(=O)N1CCC[C@H]1C(=O)N1CCC[C@H]1C(=O)N1CCC[C@H]1C(=O)N[C@@H](CO)C(N)=O)[C@@H](C)CC)[C@@H](C)CC [Example 330] | 85% |  | 0.477 nM | > 9950 nM | > 9950 nM |  | 0.0185 nM |  |  |  |  |  |  |  |  | 112%
5 | CC[C@H](C)[C@H](NC(=O)[C@H](CCCN)NC(=O)[C@H](CC(=O)O)NC(=O)[C@H](CC(C)C)NC(=O)[C@](C)(CC(C)C)NC(=O)[C@@H](NC(=O)C(C)(C)NC(=O)[C@H](Cc1ccncc1)NC(=O)[C@H](CC(=O)O)NC(=O)[C@H](CO)NC(=O)[C@@H](NC(=O)[C@](C)(Cc1ccccc1F)NC(=O)[C@@H](NC(=O)CNC(=O)[C@H](CCC(=O)O)NC(=O)C(C)(C)NC(=O)[C@@H](N)Cc1ccc(O)cc1)[C@@H](C)O)[C@@H](C)O)[C@@H](C)CC)C(=O)N[C@@H](C)C(=O)N[C@@H](CCC(N)=O)C(=O)NC(C)(C)C(=O)N[C@@H](CCCCNC(=O)COCCOCCNC(=O)COCCOCCNC(=O)CC[C@H](NC(=O)CCCCCCCCCCOc1ccc(C(=O)O)cc1)C(=O)O)C(=O)N[C@@H](Cc1ccccc1)C(=O)N[C@H](C(=O)N[C@H](CCC(=O)O)C(=O)N[C@@](C)(Cc1ccc(O)cc1)C(=O)N[C@@H](CC(C)C)C(=O)N[C@H](C(=O)N[C@@H](CCCCNC(=O)COCCOCCNC(=O)COCCOCCNC(=O)CC[C@H](NC(=O)CCCCCCCCCCOc1ccc(C(=O)O)cc1)C(=O)O)C(=O)NCC(=O)NCC(=O)N1CCC[C@H]1C(=O)N[C@@H](CO)C(=O)N[C@@H](CO)C(=O)NCC(=O)N[C@@H](C)C(=O)N1CCC[C@H]1C(=O)N1CCC[C@H]1C(=O)N1CCC[C@H]1C(=O)N[C@@H](CO)C(N)=O)[C@@H](C)CC)[C@@H](C)CC [Example 331] | 114% |  | 0.436 nM | > 9950 nM | > 9950 nM |  | 0.0113 nM |  |  |  |  |  |  |  |  | 
